In assay [1] the test system is A549. In words: Soft agar assay. In kind it is cell-based. Particulars: Homo sapiens; A549 (lung) K ras mutation; read-out: IC50, inhibition of human tumor cell growth, soft agar. Here is the method:
(§1) Anchorage-independent growth is a characteristic of tumorigenic cell lines. Human tumor cells are suspended in growth medium containing 0.3% agarose and an indicated concentration of a farnesyl transferase inhibitor. The solution is overlayed onto growth medium solidified with 0.6% agarose containing the same concentration of farnesyl transferase inhibitor as the top layer. […] After incubation, the colonies are stained by overlaying the agar with a solution of MTT (3-[4,5-dimethylthiazol-2-yl]-2,5-diphenyltetrazolium bromide, Thiazolyl blue) (1 mg/mL in PBS). Colonies are counted and the IC50's determined.

Assay [2] has as its system HTB 177. In words: Soft agar assay. In kind it is cell-based. The note with it: Homo sapiens; HTB 177 (NSCLC) K ras mutation; read-out: IC50, inhibition of human tumor cell growth, soft agar. The method, then: as §1
Assay [3] concerns HTB 175. In words: Soft agar assay. In kind it is cell-based. Particulars: Homo sapiens; HTB 175 (SCLC) ras mut. not detected; read-out: IC50, inhibition of human tumor cell growth, soft agar. Here is the method:
as §1

In assay [4] the test system is SW620-BAG human colon carcinoma cells expressing an activated K-ras gene. Nature of the assay: Cell mat assay, SW620-BAG tumor cells. Type of assay: cell-based. The note with it: Homo sapiens, SW-620, 336 h, read-out: Tumor (SW620) IC50, Mat assay, 14 d. The method, then: Compound-induced colony inhibition was assayed by addition of serial dilutions of compound directly to the growth medium 24 h after tumor cell planting, and incubating cells for an additional 14 d to allow colony formation. Assays were terminated by rinsing monolayers twice with phosphate-buffered saline (PBS), fixing the monolayers with a 1% glutaraldehyde solution in PBS, then visualizing tumor cells by staining with X-Gal (Price, J., et al., Lineage analysis in the vertebrate nervous system by retrovirus-mediated gene transfer, Proc. Natl. Acad. Sci.84, 156-160(1987)). […] Both IC50 values were obtained by determining the density of tumor cells and mat cells by visual inspection and enumeration of cells per colony and the number of colonies under the microscope.
Additional assays were carried out by following essentially the same procedure as described above, but with substitution of alternative indicator tumor cell lines in place of the T24-BAG cells. The assays were conducted using either DLD-1-BAG human colon carcinoma cells expressing as activated K-ras gene or SW620-BAG human colon carcinoma cells expressing an activated K-ras gene.

The test system of assay [5] is K ras NIH 3T3. Nature of the assay: Soft agar assay. In kind it is cell-based. Particulars: Mus musculus, NIH3T3, read-out: IC50, inhibition of human tumor cell growth, soft agar.
The test system of assay [6] is DLD-1 (human colon carcinoma cells). In words: In vivo anti-tumor studies, subcutaneous DLD-1 tumors in athymic nu/nu mice. The note with it: Mus musculus, DLD-1, po, […], read-out: Average % Tumor Inhibition. Set-up: species or system athymic nu/nu female mice.
Experimental: Tumor bearing animals are selected and randomized when the tumors are established. Animals are treated with vehicle (β-cyclodextrin for i.p. or corn oil for p.o.) only or with a compound of the present invention in vehicle four times a day (QID) for 7 days per week for 4 weeks. The percent inhibition of tumor growth relative to vehicle controls is determined by tumor measurements.
Assay [7] deals with Du4475. Nature of the assay: Soft agar assay. Type of assay: cell-based. Particulars: Homo sapiens, DU-4475; Du4475 (breast) ras mut. not detected; read-out: IC50, inhibition of human tumor cell growth, soft agar. Here is the method:
(§2) Anchorage-independent growth is a characteristic of tumorigenic cell lines. Human tumor cells are suspended in growth medium containing 0.3% agarose and an indicated concentration of a farnesyl transferase inhibitor. The solution is overlayed onto growth medium solidified with 0.6% agarose containing the same concentration of farnesyl transferase inhibitor as the top layer. After the top layer is solidified, plates are incubated for 10-16 days at 37° C. under 5% CO2 to allow colony outgrowth. After incubation, the colonies are stained by overlaying the agar with a solution of MTT (3-[4,5-dimethylthiazol-2-yl]-2,5-diphenyltetrazolium bromide, Thiazolyl blue) (1 mg/mL in PBS). Colonies are counted and the IC50's determined.

The test system of assay [8] is HPAF II. In words: Soft agar assay. Type of assay: cell-based. The note with it: Homo sapiens; HPAF II (pancreatic) K ras mutation; read-out: IC50, inhibition of human tumor cell growth, soft agar. The method, then:
as §2

In assay [9] the test system is MDA MB 468. In words: Soft agar assay. In kind it is cell-based. The note with it: Homo sapiens; MDA MB 468 (breast) ras mut. not detected; read-out: IC50, inhibition of human tumor cell growth, soft agar. The method, then: as §2
In assay [10] the test system is H ras NIH 3T3. In words: Soft agar assay. Type of assay: cell-based. Particulars: Mus musculus, NIH3T3, read-out: IC50, inhibition of human tumor cell growth, soft agar.

The values below come from US5874442A, “Tricyclic amides useful for inhibition of G-protein function and for treatment of proliferative disease” (Schering-Plough Corporation, priority 1996, dated 1999).

As a reminder, the IC50 is the midpoint of a concentration-inhibition curve. On to `NC(=O)N1CCC(CC(=O)N2CCC([C@H]3c4ncc(Br)cc4CCc4cc(Cl)cc(Br)c43)CC2)CC1` [Example 10], for which the IC50 in [1] was found to be 150 nM; in [2] it was 40 nM; in assay [3], 250 nM; in [4], 3100 nM; in [5] it was 400 nM; in assay [7], 600 nM. Besides, the values for the IC50 in assay [8], in [9] and in assay [10] were less than 500 nM, 600 nM and 75 nM, respectively. Moreover, in assay [6], the inhibition in vivo at 10 mg/kg was 49%. In [6], the inhibition in vivo at 50 mg/kg stood at 77%.
